Laboratory results taken from US8729048B2, “Methods and materials for assessing responsiveness to PARP inhibitors and platinating agents” (Mayo Foundation for Medical Education and Research, priority 2011, dated 2014).

Tested on: BRCA2-positive PEO4 cells
Test: Clonogenic assay, PEO4
Assay type: cell-based
Details: 72 hours
Procedure: FIG. 5. NHEJ is a major contributor to PARP inhibitor effects in BRCA2-deficient cells. (A) Western blots showing knockdown of Ku80 in PEO1 and PEO4 cells. (B) Clonogenic survival of PEO1 and PEO4 cells from (A), which were treated with the indicated ABT-888 concentration for 72 hours, washed, and allowed to form colonies. (C) Western blots following treatment with siRNA targeting luciferase (control), Ku80, PARP1, or both Ku80 and PARP1. (D) Clonogenic viability of PEO 1 and PEO4 cells from (C). Following knockdown, cells were plated onto triplicate plates and allowed to form colonies. (E) Clonogenic survival of PEO1 cells following Artemis knockdown. After treatment with the indicated siRNA, plates were treated with indicated concentration of ABT-888 for 72 hours, washed, and allowed to form colonies. Inset, Western blots showing knockdown using luciferase (control) or Artemis siRNAs in PEO1 cells. (F) Clonogenic survival of PEO1 and PEO4 cells treated for 72 hours with ABT-888 in combination with diluent or 500 nM DNA-PKi. All results are reported as means of triplicate plates±SEM, and are representative of 3 independent experiments.
Colony formation assays were performed on siRNA-transfected PEO1 and PEO4 cells 48 hours after the second transfection. Cells were trypsinized and plated at 750 cells/plate in triplicate 60-mm dishes containing medium A, allowed to grow 10-14 days, and stained with Coomassie Brilliant Blue. Colonies containing ≧50 cells were scored manually. To assess methyl methanesulfonate (MMS) sensitivity, PEO1 or PEO4 cells were incubated for 48 hours after the second siRNA treatment, plated onto 60-mm dishes, allowed to adhere for 4 hours, exposed to the indicated concentration of MMS (Sigma-Aldrich) for 1 hour, washed with sterile RPMI 1640, and allowed to grow into colonies in medium A. For drug treatment, cells (without siRNA) were allowed to adhere for 4-6 hours, then treated with the indicated concentrations of ABT-888 and/or AZ12594248 for 72 hours. […]

What does the source list for `C[C@]1(c2nc3c(C(N)=O)cccc3[nH]2)CCCN1` [ABT-888]?
clonogenic survival: resistant to the effects of ABT-888; clonogenic survival with ABT-888 after Ku80 knockdown (Ku80 siRNA): unaffected by Ku80 siRNA
